Experimental data as given in PMC4402678, “Twins in spirit - episode I: comparative preclinical evaluation of [^68Ga]DOTATATE and [^68Ga]HA-DOTATATE” (EJNMMI Research, 2015).
Like-named read-outs stand apart in the source and are kept apart here. One block for each compound: values may come before it.

Assays:
[1] = system: AR42J tumor-bearing nude mice; assay: Biodistribution in AR42J tumor-bearing nude mice; details: 60 min p.i.
[2] = Biodistribution in AR42J tumor-bearing nude mice; details: mouse, 60 min p.i.
hsst5 [3] = target: T1, hsst5 (Homo sapiens, UniProt P35346); assay: Competition binding, hsst5 membrane preparations (Millipore), [125I]SST-28 radioligand; set-up: purchased Millipore (Schwalbach, Germany), ChemiSCREEN membranes; host or cells: CHO cells stably transfected; details: CHO cell membranes (Millipore), [Leu8,D-Trp22,[125I]Tyr25]-somatostatin 28 radioligand; IC50 ± SD; read-out: IC50 hsst 5
Experimental: (§1) Cell membrane preparations of cells expressing the human sst1–5 were obtained from Millipore (Schwalbach, Germany) and PerkinElmer (Rodgau, Germany). Competition binding studies were performed in close analogy to the manufacturer’s protocol. […] To each well, 10 μL of (Leu^8,D-Trp^22,[^125I]Tyr^25)-somatostatin-28 in binding buffer (approx. 100,000 cpm) were added. Then, 5 μg of cell membrane in 80 μL of binding buffer were added per well and incubated for 60 min at RT. The final radioligand concentration in the incubation mixture was 0.42 nM. Membranes were then aspired onto a glass fiber filtermat (Printed Filtermat B, Wallach, Turku, Finland), which had been preconditioned with 0.33% polyethylenimine for 30 min and then washed five times with 300 μL (per well) of wash buffer (50 mM HEPES, 500 mM NaCl, 0.1% BSA, buffered to pH 7.4 using 1 N NaOH), using a Mach II M Harvester 96 (Tomtec CE, Etten-Leur, The Netherlands). Membranes were washed ten times with 150 μL (per well) of wash buffer. The filtermat was then cut into squares containing the membrane from the respective wells, and membrane bound activity was counted in a γ-counter. IC50 values were calculated from bound activity [cpm] using PRISM 6 software (Graph Pad Software, San Diego, CA, USA).
(§2) Data were determined using membrane preparations of CHO cells stably transfected with the respective sst subtype.

hsst1 = target: T2, hsst1 (Homo sapiens, UniProt P30872); assay: Competition binding, hsst1 membrane preparations (Millipore), [125I]SST-28 radioligand; details: CHO cell membranes (Millipore), [Leu8,D-Trp22,[125I]Tyr25]-somatostatin 28 radioligand; IC50 ± SD; read-out: IC50 hsst 1
T2 construct: purchased Millipore (Schwalbach, Germany), ChemiSCREEN membranes; host or cells: CHO cells stably transfected
Experimental: as §1, §2

hsst3 = target: T3, hsst3 (Homo sapiens, UniProt P32745); assay: Competition binding, hsst3 membrane preparations (Millipore), [125I]SST-28 radioligand; details: CHO cell membranes (Millipore), [Leu8,D-Trp22,[125I]Tyr25]-somatostatin 28 radioligand; IC50 ± SD; read-out: IC50 hsst 3
T3 construct: purchased Millipore (Schwalbach, Germany), ChemiSCREEN membranes; host or cells: CHO cells stably transfected
Experimental: as §1, §2

hsst5 [4] = target: T1, hsst5; set-up: method as in PMID 10774879; details: read-out: hsst5 affinity, autoradiography assay; cited from earlier work
[5] = pH 7.4, log P O/PBS
sst2 = system: sst2; set-up: method as in PMID 10774879; details: read-out: IC50 (sst2), receptor autoradiography; cited from earlier work
[6] = mouse, in vivo, iv, Biodistribution Lung, Control

T1 sequence (P35346 whole entry): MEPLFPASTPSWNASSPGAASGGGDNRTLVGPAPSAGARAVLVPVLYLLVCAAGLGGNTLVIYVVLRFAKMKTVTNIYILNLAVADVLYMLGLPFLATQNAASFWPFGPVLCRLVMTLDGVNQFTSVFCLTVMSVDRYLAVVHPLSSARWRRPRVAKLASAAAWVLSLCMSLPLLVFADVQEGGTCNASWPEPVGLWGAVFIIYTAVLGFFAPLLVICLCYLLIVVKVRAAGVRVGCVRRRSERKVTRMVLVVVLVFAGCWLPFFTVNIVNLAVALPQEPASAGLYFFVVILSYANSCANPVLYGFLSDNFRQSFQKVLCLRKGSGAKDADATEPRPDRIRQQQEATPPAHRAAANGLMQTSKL
T2 sequence (P30872 whole entry): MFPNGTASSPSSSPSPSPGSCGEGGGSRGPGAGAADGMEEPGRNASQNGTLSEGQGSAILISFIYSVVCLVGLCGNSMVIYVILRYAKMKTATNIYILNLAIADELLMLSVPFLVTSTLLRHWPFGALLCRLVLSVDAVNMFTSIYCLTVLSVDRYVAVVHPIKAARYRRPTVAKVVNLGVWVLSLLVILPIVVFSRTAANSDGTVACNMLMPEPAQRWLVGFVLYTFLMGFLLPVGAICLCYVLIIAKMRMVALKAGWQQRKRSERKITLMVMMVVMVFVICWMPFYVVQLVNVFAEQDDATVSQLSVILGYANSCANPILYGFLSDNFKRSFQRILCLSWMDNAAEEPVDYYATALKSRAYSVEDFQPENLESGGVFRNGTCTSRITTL
T3 sequence (P32745 whole entry): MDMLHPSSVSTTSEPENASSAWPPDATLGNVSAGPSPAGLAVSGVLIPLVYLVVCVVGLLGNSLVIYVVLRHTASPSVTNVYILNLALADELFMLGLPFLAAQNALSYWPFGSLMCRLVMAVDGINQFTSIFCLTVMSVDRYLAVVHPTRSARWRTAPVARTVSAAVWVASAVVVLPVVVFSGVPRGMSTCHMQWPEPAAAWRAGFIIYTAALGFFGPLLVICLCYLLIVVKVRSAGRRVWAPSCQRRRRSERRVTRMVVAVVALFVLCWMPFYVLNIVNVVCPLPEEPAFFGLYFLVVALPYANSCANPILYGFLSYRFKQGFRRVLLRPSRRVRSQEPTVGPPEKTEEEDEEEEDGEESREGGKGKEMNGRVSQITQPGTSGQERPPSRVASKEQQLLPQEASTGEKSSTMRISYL

Structure (SMILES): C[C@@H](O)[C@H](NC(=O)[C@@H]1CSSC[C@H](NC(=O)[C@@H](Cc2ccccc2)NC(=O)CN2CCN(CC(=O)O)CCN(CC(=O)O)CCN(CC(=O)O)CC2)C(=O)N[C@@H](Cc2ccc(O)c(I)c2)C(=O)N[C@H](Cc2c[nH]c3ccccc23)C(=O)N[C@@H](CCCCN)C(=O)N[C@@H]([C@@H](C)O)C(=O)N1)C(=O)O [[^68Ga]HA-DOTATATE] [[^68Ga]DOTA-3-iodo-Tyr^3-octreotate, metal not drawn]
- Uptake in sst-expressing tissues (stomach, adrenals, pancreas, AR42J tumor), factor of increase compared to [^68Ga]DOTATATE [1]: 1.4 to 2

Structure (SMILES): C[C@@H](O)[C@H](NC(=O)[C@@H]1CSSC[C@H](NC(=O)[C@@H](Cc2ccccc2)NC(=O)CN2CCN(CC(=O)O)CCN(CC(=O)O)CCN(CC(=O)O)CC2)C(=O)N[C@@H](Cc2ccc(O)cc2)C(=O)N[C@H](Cc2c[nH]c3ccccc23)C(=O)N[C@@H](CCCCN)C(=O)N[C@@H]([C@@H](C)O)C(=O)N1)C(=O)O [^natGa-DOTATATE, metal not drawn, reference compound]
- IC50 (hsst5 [3]): > 1000 nM
- IC50 (hsst1): > 1000 nM
- IC50 (hsst5 [4]): 200 to 500 nM
- logP [5]: -3.69
- IC50 (hsst3): > 1000 nM

Structure (SMILES): C[C@@H](O)[C@H](NC(=O)[C@@H]1CSSC[C@H](NC(=O)[C@@H](Cc2ccccc2)NC(=O)CN2CCN(CC(=O)O)CCN(CC(=O)O)CCN(CC(=O)O)CC2)C(=O)N[C@@H](Cc2ccc(O)cc2)C(=O)N[C@H](Cc2c[nH]c3ccccc23)C(=O)N[C@@H](CCCCN)C(=O)N[C@@H]([C@@H](C)O)C(=O)N1)C(=O)O [[^68Ga]DOTATATE, [^68Ga]DOTA-Tyr^3-octreotate, metal not drawn]
- tissue uptake at 1 h ([2]; in vivo, Biodistribution AR42J tumor, Competition, coinjection of 20 μg/mouse unlabeled TOC, n = 3): 2 ± 0.1 %ID/g
- tissue uptake at 1 h ([2]; in vivo, Biodistribution Adrenals, Competition, coinjection of 20 μg/mouse unlabeled TOC, n = 3): 0.4 ± 0.1 %ID/g
- tissue uptake at 1 h ([2]; in vivo, Biodistribution Blood, Competition, coinjection of 20 μg/mouse unlabeled TOC, n = 3): 0.4 ± 0.2 %ID/g
- tissue uptake at 1 h ([2]; in vivo, Biodistribution Heart, Competition, coinjection of 20 μg/mouse unlabeled TOC, n = 3): 0.2 ± 0.1 %ID/g
- tissue uptake at 1 h ([2]; in vivo, Biodistribution Intestine, Competition, coinjection of 20 μg/mouse unlabeled TOC, n = 3): 0.6 ± 0.2 %ID/g
- tissue uptake at 1 h ([2]; in vivo, Biodistribution Liver, Competition, coinjection of 20 μg/mouse unlabeled TOC, n = 3): 0.2 ± 0.05 %ID/g
- tissue uptake at 1 h ([2]; in vivo, Biodistribution Lung, Competition, coinjection of 20 μg/mouse unlabeled TOC, n = 3): 0.6 ± 0.2 %ID/g
- tissue uptake at 1 h ([2]; in vivo, Biodistribution Muscle, Competition, coinjection of 20 μg/mouse unlabeled TOC, n = 3): 0.2 ± 0.1 %ID/g
- tissue uptake at 1 h ([2]; in vivo, Biodistribution Spleen, Competition, coinjection of 20 μg/mouse unlabeled TOC, n = 3): 0.2 ± 0.03 %ID/g
- tissue uptake at 1 h ([2]; in vivo, Biodistribution Stomach, Competition, coinjection of 20 μg/mouse unlabeled TOC, n = 3): 0.7 ± 0.1 %ID/g
- tissue uptake at 1 h ([2]; in vivo, iv, Biodistribution AR42J tumor, Control, tracer only, n = 5): 24.1 ± 4.9 %ID/g
- tissue uptake at 1 h ([2]; in vivo, iv, Biodistribution Adrenals, Control, tracer only, n = 5): 5.1 ± 1.4 %ID/g
- tissue uptake at 1 h ([2]; in vivo, iv, Biodistribution Blood, Control, tracer only, n = 5): 0.3 ± 0.06 %ID/g
- tissue uptake at 1 h ([2]; in vivo, iv, Biodistribution Heart, Control, tracer only, n = 5): 0.3 ± 0.04 %ID/g
- tissue uptake at 1 h ([2]; in vivo, iv, Biodistribution Intestine, Control, tracer only, n = 5): 2.7 ± 0.8 %ID/g
- tissue uptake at 1 h ([2]; in vivo, iv, Biodistribution Kidney, Control, tracer only, n = 5): 3.9 ± 0.5 %ID/g
- tissue uptake at 1 h ([2]; in vivo, iv, Biodistribution Liver, Control, tracer only, n = 5): 0.5 ± 0.1 %ID/g
- tissue uptake at 1 h ([2]; in vivo, iv, Biodistribution Muscle, Control, tracer only, n = 5): 0.3 ± 0.2 %ID/g
- tissue uptake at 1 h ([2]; in vivo, iv, Biodistribution Pancreas, Control, tracer only, n = 5): 26.1 ± 4.9 %ID/g
- tissue uptake at 1 h ([2]; in vivo, iv, Biodistribution Stomach, Control, tracer only, n = 5): 15.9 ± 3.9 %ID/g
- tissue uptake at 1 h [6]: 8.4 ± 1.4 %ID/g

The next lines start with the values.

- tissue uptake at 1 h ([2]; AR42J tumor, intravenous, Biodistribution AR42J tumor, Competition, coinjection of 20 μg/mouse unlabeled TOC, n = 3): 5.6 ± 0.7 %ID/g
- tissue uptake at 1 h ([2]; AR42J tumor, iv, 25 pmol/mouse, Biodistribution AR42J tumor, Control, tracer only, n = 5): 33.6 ± 10.9 %ID/g
- tissue uptake at 1 h ([2]; adrenals, intravenous, Biodistribution Adrenals, Competition, coinjection of 20 μg/mouse unlabeled TOC, n = 3): 1 ± 0.3 %ID/g
- tissue uptake at 1 h ([2]; adrenals, iv, 25 pmol/mouse, Biodistribution Adrenals, Control, tracer only, n = 5): 10.8 ± 3.2 %ID/g
- tissue uptake at 1 h ([2]; blood, intravenous, Biodistribution Blood, Competition, coinjection of 20 μg/mouse unlabeled TOC, n = 3): 2.5 ± 0.6 %ID/g
- tissue uptake at 1 h ([2]; blood, iv, 25 pmol/mouse, Biodistribution Blood, Control, tracer only, n = 5): 0.7 ± 0.3 %ID/g
- tissue uptake at 1 h ([2]; heart, intravenous, Biodistribution Heart, Competition, coinjection of 20 μg/mouse unlabeled TOC, n = 3): 1 ± 0.2 %ID/g
- tissue uptake at 1 h ([2]; heart, iv, 25 pmol/mouse, Biodistribution Heart, Control, tracer only, n = 5): 0.5 ± 0.2 %ID/g
- tissue uptake at 1 h ([2]; intestine, intravenous, Biodistribution Intestine, Competition, coinjection of 20 μg/mouse unlabeled TOC, n = 3): 0.8 ± 0.04 %ID/g
- tissue uptake at 1 h ([2]; intestine, iv, 25 pmol/mouse, Biodistribution Intestine, Control, tracer only, n = 5): 4 ± 0.7 %ID/g
- tissue uptake at 1 h ([2]; kidney, intravenous, Biodistribution Kidney, Competition, coinjection of 20 μg/mouse unlabeled TOC, n = 3): 17.1 ± 8.7 %ID/g
- tissue uptake at 1 h ([2]; kidney, iv, 25 pmol/mouse, Biodistribution Kidney, Control, tracer only, n = 5): 5.3 ± 1 %ID/g
- tissue uptake at 1 h ([2]; liver, intravenous, Biodistribution Liver, Competition, coinjection of 20 μg/mouse unlabeled TOC, n = 3): 1 ± 0.3 %ID/g
- tissue uptake at 1 h ([2]; liver, iv, 25 pmol/mouse, Biodistribution Liver, Control, tracer only, n = 5): 1 ± 0.2 %ID/g
- tissue uptake at 1 h ([2]; lung, intravenous, Biodistribution Lung, Competition, coinjection of 20 μg/mouse unlabeled TOC, n = 3): 2.5 ± 0.4 %ID/g
- tissue uptake at 1 h ([2]; lung, iv, 25 pmol/mouse, Biodistribution Lung, Control, tracer only, n = 5): 13.2 ± 1 %ID/g
- tissue uptake at 1 h ([2]; muscle, intravenous, Biodistribution Muscle, Competition, coinjection of 20 μg/mouse unlabeled TOC, n = 3): 0.6 ± 0.4 %ID/g
- tissue uptake at 1 h ([2]; muscle, iv, 25 pmol/mouse, Biodistribution Muscle, Control, tracer only, n = 5): 0.2 ± 0.1 %ID/g
- tissue uptake at 1 h ([2]; pancreas, intravenous, Biodistribution Pancreas, Competition, coinjection of 20 μg/mouse unlabeled TOC, n = 3): 1.5 ± 0.5 %ID/g
- tissue uptake at 1 h ([2]; pancreas, iv, 25 pmol/mouse, Biodistribution Pancreas, Control, tracer only, n = 5): 36.6 ± 4.3 %ID/g
- tissue uptake at 1 h ([2]; spleen, intravenous, Biodistribution Spleen, Competition, coinjection of 20 μg/mouse unlabeled TOC, n = 3): 0.7 ± 0.2 %ID/g
- tissue uptake at 1 h ([2]; spleen, iv, 25 pmol/mouse, Biodistribution Spleen, Control, tracer only, n = 5): 1.9 ± 0.8 %ID/g
- tissue uptake at 1 h ([2]; stomach, intravenous, Biodistribution Stomach, Competition, coinjection of 20 μg/mouse unlabeled TOC, n = 3): 1.9 ± 0.8 %ID/g
- tissue uptake at 1 h ([2]; stomach, iv, 25 pmol/mouse, Biodistribution Stomach, Control, tracer only, n = 5): 21.7 ± 4.5 %ID/g
Structure (SMILES): C[C@@H](O)[C@H](NC(=O)[C@@H]1CSSC[C@H](NC(=O)[C@@H](Cc2ccccc2)NC(=O)CN2CCN(CC(=O)O)CCN(CC(=O)O)CCN(CC(=O)O)CC2)C(=O)N[C@@H](Cc2ccc(O)c(I)c2)C(=O)N[C@H](Cc2c[nH]c3ccccc23)C(=O)N[C@@H](CCCCN)C(=O)N[C@@H]([C@@H](C)O)C(=O)N1)C(=O)O [[^68Ga]HA-DOTATATE, [^68Ga]DOTA-3-iodo-Tyr^3-octreotate, metal not drawn]

- IC50 (hsst5 [3]): 102 ± 65 nM
- IC50 (hsst1): > 1000 nM
- IC50 (hsst3): > 1000 nM
Structure (SMILES): C[C@@H](O)[C@H](NC(=O)[C@@H]1CSSC[C@H](NC(=O)[C@@H](Cc2ccccc2)NC(=O)CN2CCN(CC(=O)O)CCN(CC(=O)O)CCN(CC(=O)O)CC2)C(=O)N[C@@H](Cc2ccc(O)c(I)c2)C(=O)N[C@H](Cc2c[nH]c3ccccc23)C(=O)N[C@@H](CCCCN)C(=O)N[C@@H]([C@@H](C)O)C(=O)N1)C(=O)O [^natGa-HA-DOTATATE, metal not drawn]
